Assay results taken from patent publication US20140249143A1, “Compounds And Methods For Enhancing Innate Immune Responses” (GlaxoSmithKline LLC, priority 2011, published 2014).

Assays:
[1] = tested on: STAT1 phosphorylation; experiment: STAT1 phosphorylation immunoblot in HCV replicon cells; assay type: cell-based
Description: IFNα (100 U/ml) and DMSO were included as controls. The total cell lysates were analyzed on a 4-20% SDS-PAGE gradient gel and followed by immunoblotting using anti-phopho STAT1 antibody (Cell Signaling). The level of actin was monitored as a loading control. The bands were visualized by the alkaline phosphatase activity conjugated with the secondary antibody (Promega) using ProtoBlot II AP System™ (Promega).

[2] = tested on: ISGs and cytokines mRNA; experiment: Induction of ISGs in mice in vivo; parameters: species or system Balb/c mice
Description: Naive Balb/c mice were purchased from Charles River Laboratories (Wilmington, Mass.) and administered with murine IFNα2 (30 ug/kg) intravenously or administered with oral Example 1 (300 mg/kg in 30/70% solutol/polyethylene glycol 400). The mice were then euthanized by CO2 inhalation at 0.5, 2, 6, 8, and 24 hours for sample collection. Four mice per dose group were tested.
For RNA isolation, the blood was collected in an RNAprotect™ tube (Qiagen) and processed with RNeasy Protect™ animal blood kit (Qiagen) according to the manufacturer's protocol. To preserve RNA, 30-200 mg of tissue pieces were stored in RNAlater™ solution (Invitrogen) until use. For RNA isolation, the thawed tissues were homogenized using a TissueLyser™ system (Qiagen) and processed with RNeasy 96 Universal Tissue Kit™ (Qiagen) according to the manufacturer's protocol. To remove DNA contamination, on-plate DNase digestion was included during the RNA purification.
For real time RT-PCR, cDNA was made using High Capacity cDNA Reverse Transcription Kit™ (Applied Biosystems). Gene expression was measured using TaqMan Fast Universal PCR Master Mix™ (Applied Biosystems) and gene specific probes and murine primers in HT7900 FAST System™ (Invitrogen). As housekeeping genes, actin and GAPDH were used for normalization. Data was calculated by the ΔΔCt method and fold change determined compared to non-treated control samples.

[3] = tested on: ISG56 (Interferon-Stimulated Gene 56) promoter ISRE; experiment: ISG56 luciferase reporter assay in HEK 293 cells; assay type: cell-based; conditions: Homo sapiens, HEK293; HEK 293 reporter, 24 hours; 100% = small molecule control test compound; read-out: ISG56 (Average Max Response) %
Outline: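 HEK 293 cells stably carrying a firefly luciferase reporter driven by the ISG56 promoter ISRE were incubated with compounds (11-point, 3-fold dilutions) for 24 h at 37 °C, 10,000 cells/well. Steady-Glo luminescence was normalized to DMSO and control-agonist wells, and pEC50 came from a four-parameter fit.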

[4] = tested on: IFN mediated JAK/STAT pathway (ISG54 promoter); experiment: Activation of the JAK/STAT pathway in HEKBlue IFN-α/β cells (SEAP); assay type: cell-based; conditions: HEK-Blue; 24 h, QUANTI-Blue, OD 650 nm; read-out: EC50 of activation of the JAK/STAT pathway (secreted alkaline phosphatase)
Description: The cells were incubated for 24 h in the presence of several treatments (Example 1, IFNα, and IFNλ3) and the supernatants were measured for the amount of the secreted alkaline phosphatase using QUANTI-Blue™ (InvivoGen) at the optical density of 650 nm. […] The activation of the pathway by IFNα (PBL) and IFNλ3 (R&D Systems Inc.) are shown as positive controls.

Which “time up to which phosphor-STAT1 status sustained” value ([1]; 2 uM) does the source give for `FC(F)(F)c1cc(C(F)(F)F)c2ccc3nc(-c4nnco4)cn3c2n1` [Compound 1, 2-[2,4-bis(trifluoromethyl)imidazo[1,2-a]1,8-naphthyridin-8-yl]-1,3,4-oxadiazole] here?
The value was “up to 24 h”.

What about the STAT1 phosphorylation ([1]; Example 1 2 uM, IFNα 100 U/ml, 1 h, 6 h, 24 h) of the same compound?
Its STAT1 phosphorylation is “induced STAT1 phosphorylation”.

What about the “up-regulation of ISGs at 24 hours” value ([2]; Example 1 oral 300 mg/kg, murine IFNα2 30 ug/kg intravenously) of the same compound?
Its value is “appeared to sustain”.

What about the “mRNA for Mx1, OAS1A, OAS2, CXCL10, ISG15, and IL6” value ([2]; oral 300 mg/kg, Balb/c mice) of the same compound?
Its value is “marked increase”.

What about the Emax [3] of the same compound?
The Emax was 302%.

And the EC50 [4]?
The EC50 was about 1 µM.
